The CheMixHub viscosity set
“And” between values parts separate entries of the source, which are not always exact repeats. Equal values may be shown once.

Assay: xn = mol fraction of the nth substance listed

O=S(=O)([O-])NC1CCCCC1.[Na+] + O
viscosity [mPa·s], 101 kPa
Details | x1 = 0.0007834 | x1 = 0.001319 | x1 = 0.001692 | x1 = 0.002246 | x1 = 0.002766 | x1 = 0.003045 | x1 = 0.00349 | x1 = 0.004121 | x1 = 0.00513 | x1 = 0.005949
293.15 K | 1.028 | 1.045 | 1.058 | 1.078 | 1.096 | 1.107 | 1.124 | 1.147 | 1.184 | 1.217
298.15 K | 0.9131 | 0.9289 | 0.9398 | 0.9564 | 0.973 | 0.9813 | 0.9953 | 1.015 | 1.047 | 1.075
303.15 K | 0.8176 | 0.8313 | 0.8413 | 0.8553 | 0.8697 | 0.8768 | 0.889 | 0.9061 | 0.9337 | 0.9581
313.15 K | 0.6686 | 0.6797 | 0.6875 | 0.6983 | 0.7094 | 0.7149 | 0.7243 | 0.7375 | 0.7588 | 0.7774
323.15 K | 0.5593 | 0.568 | 0.5741 | 0.5829 | 0.5918 | 0.5961 | 0.6036 | 0.6142 | 0.6312 | 0.6458

O=[N+]([O-])[O-].O=[N+]([O-])[O-].O=[N+]([O-])[O-].[Nd+3] + O
viscosity [mPa·s], 101.3 kPa
Details | x1 = 0.009316 | x1 = 0.01807 | x1 = 0.02726 | x1 = 0.03634 | x1 = 0.05266 | x1 = 0.06916 | x1 = 0.07185
293.15 K | 1.299 | 1.721 | 2.369 | 3.383 | 6.774 | 14.9 | 17.16
298.15 K | 1.159 | 1.53 | 2.106 | 2.967 | 5.8 | 12.34 | 14.09
308.15 K | 0.9433 | 1.242 | 1.696 | 2.353 | 4.38 | 8.715 | 9.848

[Cl-].[Na+] + O
Details | viscosity
293.15 K, 101.3 kPa, x1 = 0.02 | 1.079 mPa·s
293.15 K, 101.3 kPa, x1 = 0.03479 | 1.188 mPa·s
295.95 K, 100 kPa, x1 = 0.045 | 1.205 mPa·s
296.05 K, 100 kPa, x1 = 0.006 | 0.95 mPa·s
296.17 K, 100 kPa, x1 = 0.06928 | 1.448 mPa·s
296.24 K, 100 kPa, x1 = 0.06928 | 1.444 mPa·s
296.26 K, 100 kPa, x1 = 0.06928 | 1.444 mPa·s
296.5 K, 100 kPa, x1 = 0.045 | 1.192 mPa·s
296.51 K, 100 kPa, x1 = 0.045 | 1.191 mPa·s
296.65 K, 100 kPa, x1 = 0.008493 | 0.958 mPa·s and 0.96 mPa·s
296.77 K, 100 kPa, x1 = 0.06928 | 1.427 mPa·s
297.15 K, 100 kPa, x1 = 0.01884 | 1.001 mPa·s and 1.002 mPa·s
298.15 K, 100 kPa, x1 = 0.04394 | 1.132 mPa·s
298.15 K, 100 kPa, x1 = 0.05559 | 1.241 mPa·s
298.15 K, 101.3 kPa, x1 = 0.001798 | 0.8994 mPa·s
298.15 K, 101.3 kPa, x1 = 0.005732 | 0.9164 mPa·s
298.15 K, 101.3 kPa, x1 = 0.009 | 0.9256 mPa·s
298.15 K, 101.3 kPa, x1 = 0.01421 | 0.9571 mPa·s
298.15 K, 101.3 kPa, x1 = 0.02 | 0.9683 mPa·s
298.15 K, 101.3 kPa, x1 = 0.02116 | 0.9928 mPa·s
298.15 K, 101.3 kPa, x1 = 0.03479 | 1.071 mPa·s
298.15 K, 101.32 kPa, x1 = 0.09892 | 1.633 mPa·s
298.65 K, 100 kPa, x1 = 0.07389 | 1.412 mPa·s and 1.413 mPa·s and 1.41 mPa·s
300.65 K, 100 kPa, x1 = 0.08874 | 1.525 mPa·s
301.01 K, 100 kPa, x1 = 0.09185 | 1.546 mPa·s
301.02 K, 100 kPa, x1 = 0.09185 | 1.545 mPa·s
301.09 K, 100 kPa, x1 = 0.06928 | 1.299 mPa·s
301.12 K, 100 kPa, x1 = 0.06928 | 1.298 mPa·s
301.15 K, 100 kPa, x1 = 0.008493 | 0.868 mPa·s
301.25 K, 100 kPa, x1 = 0.01884 | 0.9164 mPa·s and 0.9176 mPa·s
301.59 K, 100 kPa, x1 = 0.045 | 1.071 mPa·s
301.67 K, 100 kPa, x1 = 0.045 | 1.067 mPa·s
301.68 K, 100 kPa, x1 = 0.045 | 1.069 mPa·s
301.71 K, 100 kPa, x1 = 0.09185 | 1.521 mPa·s
301.87 K, 100 kPa, x1 = 0.06928 | 1.277 mPa·s
303.15 K, 100 kPa, x1 = 0.02582 | 0.92 mPa·s
303.15 K, 101 kPa, x1 = 0.008924 | 0.8232 mPa·s
303.15 K, 101 kPa, x1 = 0.01768 | 0.8649 mPa·s
303.15 K, 101 kPa, x1 = 0.02626 | 0.911 mPa·s
303.15 K, 101.3 kPa, x1 = 0.001 | 0.807 mPa·s
303.15 K, 101.3 kPa, x1 = 0.009 | 0.8358 mPa·s
303.15 K, 101.3 kPa, x1 = 0.02 | 0.8758 mPa·s
303.15 K, 101.3 kPa, x1 = 0.03479 | 0.9703 mPa·s
303.65 K, 100 kPa, x1 = 0.04394 | 1.016 mPa·s and 1.019 mPa·s
304.15 K, 100 kPa, x1 = 0.05559 | 1.096 mPa·s and 1.095 mPa·s
308.15 K, 100 kPa, x1 = 0.07389 | 1.166 mPa·s
308.15 K, 101.3 kPa, x1 = 0.001798 | 0.7274 mPa·s
308.15 K, 101.3 kPa, x1 = 0.00359 | 0.7334 mPa·s
308.15 K, 101.3 kPa, x1 = 0.005732 | 0.7425 mPa·s
308.15 K, 101.3 kPa, x1 = 0.008927 | 0.7567 mPa·s
308.15 K, 101.3 kPa, x1 = 0.01421 | 0.7787 mPa·s
308.15 K, 101.3 kPa, x1 = 0.02116 | 0.81 mPa·s
308.65 K, 100 kPa, x1 = 0.07389 | 1.151 mPa·s and 1.152 mPa·s
308.66 K, 100 kPa, x1 = 0.06928 | 1.115 mPa·s and 1.116 mPa·s
308.68 K, 100 kPa, x1 = 0.06928 | 1.116 mPa·s
308.71 K, 100 kPa, x1 = 0.06928 | 1.113 mPa·s
308.73 K, 100 kPa, x1 = 0.06928 | 1.113 mPa·s
309.04 K, 100 kPa, x1 = 0.045 | 0.9262 mPa·s
309.11 K, 100 kPa, x1 = 0.045 | 0.926 mPa·s
309.26 K, 100 kPa, x1 = 0.045 | 0.9211 mPa·s
313.15 K, 100 kPa, x1 = 0.05559 | 0.926 mPa·s and 0.924 mPa·s
313.15 K, 101 kPa, x1 = 0.008924 | 0.6852 mPa·s
313.15 K, 101 kPa, x1 = 0.01768 | 0.7209 mPa·s
313.15 K, 101 kPa, x1 = 0.02626 | 0.759 mPa·s
313.15 K, 101.3 kPa, x1 = 0.001 | 0.668 mPa·s
313.15 K, 101.3 kPa, x1 = 0.009 | 0.6992 mPa·s
313.15 K, 101.3 kPa, x1 = 0.02 | 0.7327 mPa·s
313.15 K, 101.3 kPa, x1 = 0.03479 | 0.8126 mPa·s
313.15 K, 101.32 kPa, x1 = 0.1014 | 1.281 mPa·s
313.65 K, 100 kPa, x1 = 0.008493 | 0.679 mPa·s
313.65 K, 100 kPa, x1 = 0.02582 | 0.751 mPa·s and 0.75 mPa·s and 0.748 mPa·s
314.15 K, 100 kPa, x1 = 0.04394 | 0.834 mPa·s
317.65 K, 100 kPa, x1 = 0.08874 | 1.092 mPa·s and 1.096 mPa·s
318.15 K, 100 kPa, x1 = 0.07389 | 0.974 mPa·s and 0.97 mPa·s and 0.973 mPa·s
318.15 K, 101.3 kPa, x1 = 0.001798 | 0.6031 mPa·s
318.15 K, 101.3 kPa, x1 = 0.00359 | 0.6082 mPa·s
318.15 K, 101.3 kPa, x1 = 0.005732 | 0.6163 mPa·s
318.15 K, 101.3 kPa, x1 = 0.008927 | 0.6293 mPa·s
318.15 K, 101.3 kPa, x1 = 0.01421 | 0.6488 mPa·s
323.15 K, 101 kPa, x1 = 0.008924 | 0.5852 mPa·s
323.15 K, 101 kPa, x1 = 0.01768 | 0.617 mPa·s
323.15 K, 101 kPa, x1 = 0.02626 | 0.6491 mPa·s
323.15 K, 101.3 kPa, x1 = 0.009 | 0.6002 mPa·s
323.15 K, 101.3 kPa, x1 = 0.02 | 0.6302 mPa·s
323.15 K, 101.3 kPa, x1 = 0.03479 | 0.6611 mPa·s
